According to patent US20110230471A1, “BENZONAPHTYRIDINE COMPOUNDS AS INHIBITORS OF AUTOTAXIN” (MERCK PATENT GESELLSCHAFT MIT BESCHRANKTER HAFTUNG, priority 2008, published 2011):

Target: T1, recombinant autotaxin (Homo sapiens, UniProt Q13822)
T1 construct: made in house; host or cells: Hi5 insect cells (baculovirus)
Assay: Autotaxin test (enzyme test), Amplex Red
Type: biochemical
Conditions: Autotaxin inhibition (enzyme test), substrate LPC 75 μM
Procedure: The autotaxin activity is measured indirectly using Amplex Red reagent. Amplex Red is measured here as fluorogenic indicator for the H2O2 formed. In detail, autotaxin converts the substrate lysophosphatidylcholine (LPC) into phosphocholine and lysophosphatidylic acid (LPA). After this reaction, the phosphocholine is reacted with alkaline phosphatase to give inorganic phosphate and choline. In the next step, choline is oxidised by choline oxidase to give betaine, with formation of H2O2. H2O2 reacts with Amplex Red reagent in the presence of peroxidase (horseradish peroxidase) in a 1:1 stoichiometry and forms the highly fluorescent resorufin. The fluorescence is measured in a reaction-dependent kinetic mode in order that fluorescent signals from possible other fluorescent substances which are not involved in the reaction can be corrected out.
1.5 μl of a standard solution or of the test substances (substances with the name A(n))in individual concentrations dissolved in 20 mM Hepes pH 7.2 with a maximum of 7.7% of DMSO are pre-incubated together with 10 μl (16 ng) of highly purified recombinant autotaxin in a black microtitre plate provided with 384 wells at 22° C. for 30 min. The reaction is then initiated by addition of 5 μl of L-α-lysophosphatidylcholine (LPC), where the final concentration of LPC is 75 μM. The mixture is incubated at 37° C. for 90 min. After the incubation, Amplex Red reagent, peroxidase (horseradish peroxidase) and choline oxidase is added, and the fluorescence is immediately measured at 612 nm with excitation of 485 nm in a “Tecan Ultra multimode” reader. The activity of autotaxin is calculated indirectly via detection of the H2O2 formed.
• Microtitre plate: PS microplate, 384 wells, small volume, black Corning, Cat#3677 • Protein: recombinant autotaxin (Baculovirale Hi5 Expression) • Substrate: L-α-lysophosphatidylcholine (chicken egg)); Avanti Polar Lipids # 830071 P • Standard: C14 LPA, Avanti Polar Lipids, Cat# 857120P • Detection reagent: Amplex Red reagent; Invitrogen # A12222; dissolved in 1.923 ml of DMSO peroxidase type VI-A (horseradish) from Sigma # P6782; dissolved in 7.45 ml of test buffer, choline oxidase; Sigma # C5896; dissolved in 2.47 ml of test buffer • Detection reagent mix: 1:100 dilution of Amplex Red reagent in test buffer • Test buffer: 200 mM Tris HCl, Merck, Cat # 1.08219, pH 7.9, 0.1% of BSA, lipid-free, Roche Cat#775835

| Compound | IC50 (TABLE 1 (A compounds)) [nM] | IC50 (TABLE 2 (B compounds)) [nM] |
| --- | --- | --- |
| COc1ccc(Cl)cc1NC(=O)CN1CCc2nc3ccccc3c(C(=O)N3CCNCC3)c2C1 [Compound A27, N-(5-chloro-2-methoxyphenyl)-2-[10-(piperazine-1-carbonyl)-3,4-dihydro-1H-benzo[b][1,6]naphthyridin-2-yl]acetamide] | 100 to 1000 |  |
| O=C(CN1CCc2nc3ccccc3c(C(=O)N3CCN(CCO)CC3)c2C1)Nc1cc(Cl)ccc1Cl [Compound A75, N-(2,5-Dichlorophenyl)-2-{10-[4-(2-hydroxyethyl)piperazine-1-carbonyl]-3,4-dihydro-1H-benzo[b][1,6]naphthyridin-2-yl}acetamide] | 100 to 1000 |  |
| O=C(c1c2c(nc3ccccc13)CCN(Cc1ccnc(Cl)c1)C2)N1CCOCC1 [Compound B52, [2-(2-Chloropyridin-4-ylmethyl)-1,2,3,4-tetrahydrobenzo[b][1,6]naphthyridin-10-yl]morpholin-4-ylmethanone] |  | > 1000 |
| COc1ccc(Cl)cc1NC(=O)CN1CCc2nc3ccccc3c(C(=O)N3CCN(CCN4CCCCC4)CC3)c2C1 [Compound A66, N-(5-Chloro-2-methoxyphenyl)-2-{10-[4-(2-piperidin-1-ylethyl)piperazine-1-carbonyl]-3,4-dihydro-1H-benzo[b][1,6]naphthyridin-2-yl}acetamide] | < 100 |  |
| O=C(CN1CCc2nc3ccccc3c(C(=O)N3CCOCC3)c2C1)Nc1cccc(Cl)c1 [Compound A9, N-(3-Chlorophenyl)-2-[10-(morpholine-4-carbonyl)-3,4-dihydro-1H-benzo-[b][1,6]naphthyridin-2-yl]acetamide] | > 1000 |  |
| COc1ccc(Cl)cc1-c1nnc(CN2CCc3nc4ccccc4c(C(=O)NC4CCN(C)CC4)c3C2)o1 [Compound B33, N-(1-Methylpiperidin-4-yl)-2-[5-(5-chloro-2-methoxyphenyl)-1,3,4-oxadiazol-2-ylmethyl]-1,2,3,4-tetrahydrobenzo[b][1,6]naphthyridine-10-carboxamide] |  | > 1000 |
| O=C(CN1CCc2nc3ccccc3c(C(=O)N3CCN(CCO)CC3)c2C1)Nc1ccc(Cl)c(Cl)c1 [Compound A76, N-(3,4-Dichlorophenyl)-2-{10-[4-(2-hydroxyethyl)piperazine-1-carbonyl]-3,4-dihydro-1H-benzo[b][1,6]naphthyridin-2-yl}acetamide] | > 1000 |  |
| COCCNC(=O)c1c2c(nc3ccccc13)CCN(Cc1nnc(-c3cc(Cl)ccc3OC)o1)C2 [Compound B31, N-(2-Methoxyethyl)-2-[5-(5-chloro-2-methoxyphenyl)-1,3,4-oxadiazol-2-yl-methyl]-1,2,3,4-tetrahydrobenzo[b][1,6]naphthyridine-10-carboxamide] |  | > 1000 |
| O=C(CN1CCc2nc3ccccc3c(C(=O)N3CCOCC3)c2C1)Nc1cccc2ccoc12 [Compound A45, N-Benzofuran-7-yl-2-[10-(morpholine-4-carbonyl)-3,4-dihydro-1H-benzo-[b][1,6]naphthyridin-2-yl]acetamide] | > 1000 |  |
| COc1ccc(C)cc1NC(=O)CN1CCc2nc3ccccc3c(C(=O)N3CCOCC3)c2C1 [Compound A12, N-(2-Methoxy-5-methylphenyl)-2-[10-(morpholine-4-carbonyl)-3,4-dihydro-1H-benzo[b][1,6]naphthyridin-2-yl]acetamide] | 100 to 1000 |  |
| COc1ccc(Br)cc1NC(=O)CN1CCc2nc3ccccc3c(C(=O)N3CCOCC3)c2C1 [Compound A13, N-(5-Bromo-2-methoxyphenyl)-2-[10-(morpholine-4-carbonyl)-3,4-dihydro-1H-benzo[b][1,6]naphthyridin-2-yl]acetamide] | < 100 |  |
| O=C(CN1CCc2nc3ccccc3c(C(=O)N3CCN(CCO)CC3)c2C1)Nc1cc(Cl)ccc1OCCO [Compound A61, N-[5-Chloro-2-(2-hydroxyethoxy)phenyl]-2-{10-[4-(2-hydroxyethyl)-piperazine-1-carbonyl]-3,4-dihydro-1H-benzo[b][1,6]naphthyridin-2-yl}-acetamide] | 100 to 1000 |  |
| COc1ccc(-c2ccccc2)cc1NC(=O)CN1CCc2nc3ccccc3c(C(=O)N3CCOCC3)c2C1 [Compound A14, N-(4-Methoxybiphenyl-3-yl)-2-[10-(morpholine-4-carbonyl)-3,4-dihydro-1H-benzo[b][1,6]naphthyridin-2-yl]acetamide] | 100 to 1000 |  |
| CCc1ccc2c(C(=O)N3CCOCC3)c3c(nc2c1)CCN(CC(=O)Nc1cc(Cl)ccc1OC)C3 [Compound A17, N-(5-Chloro-2-methoxyphenyl)-2-[7-ethyl-10-(morpholine-4-carbonyl)-3,4-dihydro-1H-benzo[b][1,6]naphthyridin-2-yl]acetamide] | 100 to 1000 |  |
| COc1c(F)cc(Br)cc1NC(=O)CN1CCc2nc3ccccc3c(C(=O)N3CCOCC3)c2C1 [Compound B24, N-(5-Bromo-3-fluoro-2-methoxyphenyl)-2-[10-(morpholine-4-carbonyl)-3,4-dihydro-1H-benzo[b][1,6]naphthyridin-2-yl]acetamide] |  | 100 to 1000 |
| COc1ccc(Cl)cc1NCCN1CCc2nc3ccccc3c(C(=O)N3CCN(CCO)CC3)c2C1 [Compound B14, {2-[2-(5-Chloro-2-methoxyphenylamino)ethyl]-1,2,3,4-tetrahydrobenzo-[b][1,6]naphthyridin-10-yl}-[4-(2-hydroxyethyl)piperazin-1-yl]methanone] |  | > 1000 |
| O=C(CN1CCc2nc3ccccc3c(C(=O)N3CCN(CCO)CC3)c2C1)Nc1ccc(N2CCCC2=O)c(Cl)c1 [Compound A64, N-[3-Chloro-4-(2-oxopyrrolidin-1-yl)phenyl]-2-{10-[4-(2-hydroxyethyl)-piperazine-1-carbonyl]-3,4-dihydro-1H-benzo[b][1,6]naphthyridin-2-yl}-acetamide] | > 1000 |  |
| COc1ccc(Cl)cc1NC(=O)CN1CCc2nc3ccccc3c(C(=O)N3CCN(C4CCCC4)CC3)c2C1 [Compound A28, N-(5-Chloro-2-methoxyphenyl)-2-[10-(4-cyclopentylpiperazine-1-carbonyl)-3,4-dihydro-1H-benzo[b][1,6]naphthyridin-2-yl]acetamide] | 100 to 1000 |  |
